# From patent publication US7951408B2, “Methods of feeding animals” (ADM Alliance Nutrition Inc., priority 2001, dated 2011)
# “And” between values parts separate entries of the source, which are not always exact repeats. Equal entries are not always repeated. Where two headings read alike, the source gives them in different places. Marks after values point to notes of the source that are not given here.
# Experiments:
# rumen protein digestion [1] = test: In vitro fermentation of protein meals with metal ions: RUP after 16 h; details: for Mean RUP: 150 mg/L metal ions, 16 h of fermentation
# rumen protein digestion [2] = test: In vitro digestion in artificial rumen system (Ankom Daisy): rumen protein digestion
# Method: Metals were incorporated at 150 or 300 mg/L. […] Previous efforts focused on the digestion of high protein feeds such as oilseed meals.
# crossbred wether lambs = test: Performance of lambs receiving zinc or zinc, manganese, iron combinations; type: in vivo; details: 16% CP, Low RUP diet plus metal sulfates (about 500 ppm total metal)
# Method: Individually fed crossbred wether lambs were fed diets containing 14% CP (as a negative control) or 16% CP with low or high RUP content to examine the feeding of divalent metals singly or in combination. Bypass protein content was increased by feeding higher amounts of heat-treated soybean meal. In the 16%, Low RUP diet, the following metal additions were tested: 500 ppm Zn; 250 ppm Zn:250 ppm Mn; and 170 ppm Zn: 170 ppm Mn: 170 ppm Fe. All metals were added in the sulfate form, and iron was in the form of ferrous sulfate. Feeding the 16% CP: High RUP diet or adding metals to the 16% CP: Low RUP tended to decrease gain and feed efficiency with only small effects on feed intake relative to that obtained with the 16%, low RUP diet (Table 6).
# For instance, Table 6A presents the data of Table 6 in a different format. The average body weight is determined by dividing the sum of the initial weight and the 42 day weight of the lamb by 2.
# Holstein cows = details: complete feed 1020 ppm of zinc, six weeks
# Description: The source of RUP was a combination of heated soybean meal, corn gluten meal, and distiller dried grains.
# rumen starch digestion = test: In vitro starch digestion and pH in artificial rumen system (Ankom Daisy)
# Method: In vitro digestions of a complete dairy pellet, and a dairy total mixed ration TMR) were performed using an artificial rumen system (Ankom Daisy system) to evaluate the effects of metal ions on rumen starch digestion.
# lactating dairy cows = details: for Dry matter intake / Intestinal Amino Acid flows, Lysine / Intestinal Amino Acid flows, Methionine / Intestinal Amino Acid flows, Total Essential Amino Acids / Ruminal digestion, Neutral Detergent Fiber / Ruminal digestion, Organic Matter / Ruminal digestion, Starch: additional 250 ppm zinc
# Method: The concentration of RUP in high and low RUP diets were manipulated by changing the proportions of low RUP feeds (soybean meal, canola) and high RUP feeds (heated soybean meal, corn gluten meal).
# Using the data presented in Table 8, the amount of metal ions fed to the cows can also be expressed in grams of metal ions per kilogram of the cow's body weight per day. For instance, Table 8A presents the data of Table 8 in a different format. The average body weight is determined by the fact that an average mature dairy cow weighs about 640 kg. The grams of metal ions fed to the cow per kg of the cow's body weight per day is determined by: multiplying the DMI (kg/day) times the metal ion concentration (grams of metal ions per kg of dry feed), resulting in the amount of metal ions in grams fed to the cow per day; the amount of metal ions in grams fed to the cow per day is divided by the average body weight of the cow, thus resulting in the grams of metal ions fed to the cow per kg of the cow's body weight per day.
molecule,measurement,setting,value
"O=S(=O)([O-])[O-].[Zn+2] [Zinc, zinc sulfate]",Mean RUP,rumen protein digestion [1]; Canola,57.3^b
same,Mean RUP,rumen protein digestion [1]; Cottonseed,64.4^c
same,Mean RUP,rumen protein digestion [1]; Heated Canola,85.2^b
same,Mean RUP,rumen protein digestion [1]; Heated SBM,85.2^b
same,Mean RUP,rumen protein digestion [1]; SBM,56.4^c
same,Average rumen undegraded protein for all samples,rumen protein digestion [2],45 % of protein and 48 % of protein
same,ADG (average daily gain),crossbred wether lambs,"451^a,b g/day"
same,G/F × 100 (ratio of weight gain to feed intake),crossbred wether lambs,27.3^b
same,Total Gain,crossbred wether lambs,18.81^a kg
same,42 day weight,crossbred wether lambs; listed as Zn,43.8^a kg and 43.8 kg
same,DMI (dry matter intake),crossbred wether lambs; listed as Zn,1.66^a kg/day and 1.66 kg/day
same,Milk,Holstein cows,33.2 kg/day
same,Milk Fat,Holstein cows,3.25%
same,Milk Protein,Holstein cows,3.20%
same,Ammonia,rumen starch digestion,30.8 mg/dL and 29.7 mg/dL
same,"Ammonia, Main Effects",rumen starch digestion,-1.1 mg/dL
same,"Digestion Rates, Rumen Undegraded Starch (16 hours), Main Effects",rumen starch digestion,.038** % per hour
same,"Digestion Rates, pH Decline, Main Effects",rumen starch digestion,−.027 % per hour
same,Rumen Undegraded Starch (16 hours),rumen starch digestion,13.2% and 12.0%
same,"Rumen Undegraded Starch (16 hours), Main Effects",rumen starch digestion,4.0%
same,calculated kinetic rate for starch digestion,rumen starch digestion,decreased
same,"pH at 16 hours, Main Effects",rumen starch digestion,.05*
same,"pH at 48 hours, Main Effects",rumen starch digestion,.05
same,rumen undegraded starch measured at 16 h,rumen starch digestion,increased
same,Dry matter intake,lactating dairy cows; High RUP diet,22.2 kg/day
same,"Intestinal Amino Acid flows, Lysine",lactating dairy cows; High RUP diet,200.0 g/day
same,"Intestinal Amino Acid flows, Methionine",lactating dairy cows; High RUP diet,58.2 g/day
same,"Intestinal Amino Acid flows, Total Essential Amino Acids",lactating dairy cows; High RUP diet,1601 g/day
same,"Ruminal digestion, Neutral Detergent Fiber",lactating dairy cows; High RUP diet,24.8 % of intake
same,"Ruminal digestion, Organic Matter",lactating dairy cows; High RUP diet,45.5 % of intake
same,"Ruminal digestion, Starch",lactating dairy cows; High RUP diet,52.8 % of intake
same,Dry matter intake,lactating dairy cows; Low RUP diet,21.8 kg/day
same,"Intestinal Amino Acid flows, Lysine",lactating dairy cows; Low RUP diet,183.3 g/day
same,"Intestinal Amino Acid flows, Methionine",lactating dairy cows; Low RUP diet,49.0 g/day
same,"Intestinal Amino Acid flows, Total Essential Amino Acids",lactating dairy cows; Low RUP diet,1331 g/day
same,"Ruminal digestion, Neutral Detergent Fiber",lactating dairy cows; Low RUP diet,22.0 % of intake
same,"Ruminal digestion, Organic Matter",lactating dairy cows; Low RUP diet,47.3 % of intake
same,"Ruminal digestion, Starch",lactating dairy cows; Low RUP diet,53.6 % of intake
same,digestion of starch in the rumen,"lactating dairy cows; both the low and high RUP diets, in words",reduced
ferrous sulfate [Ferrous Iron],"decreasing rumen protein digestion, effectiveness","rumen protein digestion [1]; 150 mg/L, in words",substantially more effective than the ferric ion
same,Mean RUP,rumen protein digestion [1]; Canola,57.7^b
same,Mean RUP,rumen protein digestion [1]; Cottonseed,62.1^bc
same,Mean RUP,rumen protein digestion [1]; Heated Canola,83.5^b
same,Mean RUP,rumen protein digestion [1]; Heated SBM,83.9^b
same,Mean RUP,rumen protein digestion [1]; SBM,42.9^b
manganous sulfate [Manganese],rumen undegraded protein,"rumen protein digestion [2]; Alfalfa Haylage, 150 mg/L",26.1
same,rumen undegraded protein,"rumen protein digestion [2]; Alfalfa Haylage, 300 mg/L",24.8
same,rumen undegraded protein,"rumen protein digestion [2]; Dairy Concentrate Feeds, 150 mg/L",50.9
same,rumen undegraded protein,"rumen protein digestion [2]; Dairy Concentrate Feeds, 300 mg/L",52.3
same,Average rumen undegraded protein for all samples,rumen protein digestion [2]; metal inclusion 150 mg/L,43.2 % of protein
same,Average rumen undegraded protein for all samples,rumen protein digestion [2]; metal inclusion 300 mg/L,42.5 % of protein
same,Ammonia,rumen starch digestion; 150 mg/L metal,32.1 mg/dL
same,"Digestion Rates, Rumen Undegraded Starch (16 hours)",rumen starch digestion; 150 mg/L metal,−.137 % per hour
same,"Digestion Rates, pH Decline",rumen starch digestion; 150 mg/L metal,.135 % per hour
same,Rumen Undegraded Starch (16 hours),rumen starch digestion; 150 mg/L metal,5.1%
same,pH at 16 hours,rumen starch digestion; 150 mg/L metal,−.28
same,pH at 48 hours,rumen starch digestion; 150 mg/L metal,−.30
same,Ammonia,rumen starch digestion; 300 mg/L metal,34.2 mg/dL
same,"Digestion Rates, Rumen Undegraded Starch (16 hours)",rumen starch digestion; 300 mg/L metal,−.132 % per hour
same,"Digestion Rates, pH Decline",rumen starch digestion; 300 mg/L metal,.247 % per hour
same,Rumen Undegraded Starch (16 hours),rumen starch digestion; 300 mg/L metal,8.0%
same,pH at 16 hours,rumen starch digestion; 300 mg/L metal,−.34
same,pH at 48 hours,rumen starch digestion; 300 mg/L metal,−.27
same,"Ammonia, Main Effects",rumen starch digestion; main effect of metal,1.8 mg/dL
same,"Digestion Rates, Rumen Undegraded Starch (16 hours), Main Effects",rumen starch digestion; main effect of metal,0.0 % per hour
same,"Digestion Rates, pH Decline, Main Effects",rumen starch digestion; main effect of metal,−.043 % per hour
same,"Rumen Undegraded Starch (16 hours), Main Effects",rumen starch digestion; main effect of metal,−2.0%
same,"pH at 16 hours, Main Effects",rumen starch digestion; main effect of metal,.05*
same,"pH at 48 hours, Main Effects",rumen starch digestion; main effect of metal,.03
[Cl][Fe]([Cl])[Cl] [Ferric Iron],Mean RUP,rumen protein digestion [1]; Canola,51.6^ab
same,Mean RUP,rumen protein digestion [1]; Cottonseed,58.4^b
same,Mean RUP,rumen protein digestion [1]; Heated Canola,81.1^a
same,Mean RUP,rumen protein digestion [1]; Heated SBM,81.7^ab
same,Mean RUP,rumen protein digestion [1]; SBM,29.1^a
